Source: paper PMC11066876, “Late-Stage Saturation of Drug Molecules” (Journal of the American Chemical Society, 2024)
≈ marks a conversion by molar mass, not a printed value.

Legend:
[1] = High-throughput (direct-to-biology) human liver microsomal stability assay; settings: for %Change After 60 min: %remaining after LSS minus before LSS at 60 min; for remaining at 0 h, 105 µM / remaining at 0.25 h, 105 µM / remaining at 0.5 h, 105 µM / remaining at 1 h, 105 µM / half-life at 105 µM: both, human, microsomes, pH 7.4
[2] = Measurement of LogPo/w (n-octanol/water, RP-HPLC); format: physicochemical; settings: n = 3; for logP at 24 h: measured n-octanol-water partition coefficient, 30 °C; for C(oil): n-octanol phase; for C(oil) / C(aqueous): n-octanol/water 1:1, 30 °C, 24 h; for C(aqueous): water phase
[3] = Metabolic stability in human liver microsomes (Pharmaron); settings: for CLint scaled at 1 µM / microsomal CLint at 1 µM / half-life at 1 µM: both, microsomes; for CLint scaled at 1 µM / microsomal CLint at 1 µM / half-life at 1 µM / Hepatic Extraction Ratio (ER) / Predicted Hepatic CLH: human; for Remaining Percentage 0.5 min / Remaining Percentage 5 min / Remaining Percentage 15 min / Remaining Percentage 30 min: human liver microsomes 0.5 mg/mL, +Cofactors (NADPH), 1 μM; for Predicted Hepatic CLH: QH 21 mL/min/kg, fub assumed 1
SARS-CoV M^pro = settings: Figure 1B; cited from earlier work
[4] = parameters: method as in PMID 23701517; settings: aqueous solubility, Figure 1B; cited from earlier work
[5] = parameters: method as in PMID 23701517; settings: Figure 1B; cited from earlier work
[6] = Traditional t1/2, human liver microsomes, Figure 6B
[7] = in vitro t1/2, human liver microsomes, Table S21

## Nc1c2ccccc2nc2ccccc12 [Aminacrine]
[1]; human liver microsomes
  %Change After 60 min: -12.39%
[1]
  remaining at 0 h, 105 µM: 100%
  remaining at 0.25 h, 105 µM: 83.7%
  remaining at 0.5 h, 105 µM: 75.1%
  remaining at 1 h, 105 µM: 66.2%

## COC(=O)N[C@H](C(=O)N[C@@H](Cc1ccccc1)[C@@H](O)CN(Cc1ccc(-c2ccccn2)cc1)NC(=O)[C@@H](NC(=O)OC)C(C)(C)C)C(C)(C)C [Atazanavir]
[1]; human liver microsomes
  %Change After 60 min: -5.37%
[1]
  remaining at 0 h, 105 µM: 100%
  remaining at 0.25 h, 105 µM: 84.7%
  remaining at 0.5 h, 105 µM: 72.9%
  remaining at 1 h, 105 µM: 65.3%

## CC(Cc1cccc(C(F)(F)F)c1)NCCOC(=O)c1ccccc1 (stereo not drawn) [Benfluorex]
[1]
  remaining at 0 h, 105 µM: 100%

## CN(Cc1ccc(C(C)(C)C)cc1)Cc1cccc2ccccc12 [Butenafine]
[1]; human liver microsomes
  %Change After 60 min: -2.69%
[1]
  remaining at 0 h, 105 µM: 100%
  remaining at 0.25 h, 105 µM: 97.8%
  remaining at 0.5 h, 105 µM: 95.6%
  remaining at 1 h, 105 µM: 94.9%

## C[C@@H](NCCCc1cccc(C(F)(F)F)c1)c1cccc2ccccc12 [Cinacalcet]
[2]
  logP at 24 h: 4.61
  C(oil): 8.962 mg/mL
  C(aqueous): 0.0002 mg/mL
[3]
  CLint scaled at 1 µM: 67.4 mL/min/kg
  microsomal CLint at 1 µM: 65.6 µL/min/mg
  Hepatic Extraction Ratio (ER): 0.76
  Remaining Percentage 0.5 min: 100.00%
  Remaining Percentage 5 min: 80.88%
  Remaining Percentage 15 min: 55.07%
  Remaining Percentage 30 min: 37.55%
  Predicted Hepatic CLH: 16.01 mL/min/kg
[3]; [6]
  half-life at 1 µM: 21.1 min
[3]; [7]
  half-life at 1 µM: 21.1 min
[1]; human liver microsomes
  %Change After 60 min: -1.7%
[1]
  half-life at 105 µM: 35.4 min
  remaining at 0 h, 105 µM: 100%
  remaining at 0.25 h, 105 µM: 67.4%
  remaining at 0.5 h, 105 µM: 49%
  remaining at 1 h, 105 µM: 35.4%

## CCN(CC)C(=O)c1cccc(C)c1 [Diethyltoluamide]
[1]; human liver microsomes
  %Change After 60 min: 0.82%
[1]
  remaining at 0 h, 105 µM: 100%
  remaining at 0.25 h, 105 µM: 89%
  remaining at 0.5 h, 105 µM: 81.7%
  remaining at 1 h, 105 µM: 75.5%

## CC(C(=O)O)c1ccc(-c2ccccc2)c(F)c1 (stereo not drawn) [Flurbiprofen]
[2]
  logP at 24 h: 1.14
  C(oil): 1.858 mg/mL
  C(aqueous): 0.135 mg/mL
[1]; human liver microsomes
  %Change After 60 min: 7.13%
[1]
  remaining at 0 h, 105 µM: 100%
  remaining at 0.25 h, 105 µM: 50.1%
  remaining at 0.5 h, 105 µM: 25.1%
  remaining at 1 h, 105 µM: 9.28%

## CC(C(=O)O)c1ccc(N2Cc3ccccc3C2=O)cc1 (stereo not drawn) [Indoprofen]
[2]
  logP at 24 h: 1.02
  C(oil): 0.943 mg/mL
  C(aqueous): 0.091 mg/mL
[1]; human liver microsomes
  %Change After 60 min: -14.04%
[1]
  remaining at 0 h, 105 µM: 100%
  remaining at 0.25 h, 105 µM: 97.6%
  remaining at 0.5 h, 105 µM: 99%
  remaining at 1 h, 105 µM: 102%

## COc1ccc2cc(CCC(C)=O)ccc2c1 [Nabumetone, nabumetone]
[1]; human liver microsomes
  %Change After 60 min: 5.23%
[1]
  remaining at 0 h, 105 µM: 100%
  remaining at 0.25 h, 105 µM: 58%
  remaining at 0.5 h, 105 µM: 40.7%
  remaining at 1 h, 105 µM: 21.7%

## COc1ccccc1N1CCN(CC(O)COc2cccc3ccccc23)CC1 (stereo not drawn) [Naftopidil]
[2]
  logP at 24 h: 2.04
  C(oil): 1.697 mg/mL
  C(aqueous): 0.016 mg/mL
[1]; human liver microsomes
  %Change After 60 min: -25.63%
[1]
  remaining at 0 h, 105 µM: 100%
  remaining at 0.25 h, 105 µM: 72.2%
  remaining at 0.5 h, 105 µM: 58.9%
  remaining at 1 h, 105 µM: 47%

## O=C(C1CCCCC1)N1CC(=O)N2CCc3ccccc3C2C1 (stereo not drawn) [Praziquantel, praziquantel]
[1]; human liver microsomes
  %Change After 60 min: -15.26%
[1]
  remaining at 0.5 h, 105 µM: 31.8%
  remaining at 1 h, 105 µM: 15.3%

## CCCNC(C)C(=O)Nc1ccccc1C (stereo not drawn) [Prilocaine]
[2]
  logP at 24 h: 1.02
  C(oil): 1.306 mg/mL
  C(aqueous): 0.124 mg/mL
[1]; human liver microsomes
  %Change After 60 min: -13.77%
[1]
  remaining at 0 h, 105 µM: 100%
  remaining at 0.25 h, 105 µM: 86%
  remaining at 0.5 h, 105 µM: 75%
  remaining at 1 h, 105 µM: 67.4%

## CCC1(c2ccccc2)C(=O)NCNC1=O [Primidone]
[1]; human liver microsomes
  %Change After 60 min: 2.16%
[1]
  remaining at 0 h, 105 µM: 100%
  remaining at 0.25 h, 105 µM: 71%
  remaining at 0.5 h, 105 µM: 43.6%
  remaining at 1 h, 105 µM: 27.8%

## CC(C)NCC(O)COc1cccc2ccccc12 (stereo not drawn) [Propranolol]
[2]
  C(oil): 2.871 mg/mL
  C(aqueous): 0.015 mg/mL

## CCOC(=O)[C@H](C)C[C@@H](Cc1ccc(-c2ccccc2)cc1)NC(=O)CCC(=O)O [Sacubitril]
[2]
  logP at 24 h: 1.47
  C(oil): 1.368 mg/mL
  C(aqueous): 0.047 mg/mL
[1]; human liver microsomes
  %Change After 60 min: -1.91%
[1]
  remaining at 0 h, 105 µM: 100%
  remaining at 0.25 h, 105 µM: 60.2%
  remaining at 0.5 h, 105 µM: 34%
  remaining at 1 h, 105 µM: 22.6%

## CCN(Cc1ccncc1)C(=O)C(CO)c1ccccc1 (stereo not drawn) [Tropicamide]
[1]; human liver microsomes
  %Change After 60 min: -2.61%
[1]
  remaining at 0 h, 105 µM: 100%
  remaining at 0.25 h, 105 µM: 95.2%
  remaining at 0.5 h, 105 µM: 91.9%
  remaining at 1 h, 105 µM: 88.1%

## O=C(/C=C/c1ccccc1)N[C@@H](Cc1ccccc1)C(=O)N[C@@H](C[C@@H]1CCNC1=O)C(=O)C(=O)NCc1ccccc1 [compound 1]
SARS-CoV M^pro
  IC50: 1950 nM

## O=C(/C=C/c1ccccc1)N[C@@H](CC1CCCCC1)C(=O)N[C@@H](C[C@@H]1CCNC1=O)C(=O)C(=O)NCc1ccccc1 [compound 2]
SARS-CoV M^pro
  IC50: 710 nM

## CC1(C)OC(=O)N(c2ccc(C(=O)Nc3cccc4cccnc34)cc2)[C@H]1c1ccccc1 [compound 3]
[4]
  Solubility: 5 µg/mL (≈ 11.4 µM)
[5]
  Plasma stability (t1/2): 312 min

## CC1(C)OC(=O)N([C@H]2CC[C@H](C(=O)Nc3cccc4cccnc34)CC2)[C@H]1c1ccccc1 [compound 4]
[5]
  Plasma stability (t1/2): > 500 min

## CCCNC(C)C(=O)NC1CCCCC1C (stereo not drawn) [compound 15]
[2]
  logP at 24 h: 1.39
  C(oil): 1.569 mg/mL
  C(aqueous): 0.064 mg/mL

## CC(C)NCC(O)COC1CCCC2CCCCC21 (stereo not drawn) [compound 23]
[2]
  logP at 24 h: 2.62
  C(oil): 2.697 mg/mL
  C(aqueous): 0.007 mg/mL

## CC(C(=O)O)c1ccc(C2CCCCC2)c(F)c1 (stereo not drawn) [compound 27]
[2]
  logP at 24 h: 1.54
  C(oil): 2.453 mg/mL
  C(aqueous): 0.071 mg/mL
[1]; human liver microsomes, saturated congener versus parent drug, in words
  microsomal stability upon saturation: increase in stability

## COc1ccccc1N1CCN(CC(O)COc2cccc3c2CCCC3)CC1 (stereo not drawn) [compound 28]
[2]
  logP at 24 h: 2.1
  C(oil): 1.761 mg/mL
  C(aqueous): 0.014 mg/mL

## CC(C(=O)O)c1ccc(N2C[C@H]3CCCC[C@H]3C2=O)cc1 (stereo partly drawn) [compound 37]
[2]
  logP at 24 h: 0.813
  C(oil): 0.897 mg/mL
  C(aqueous): 0.138 mg/mL

## C[C@@H](NCCCc1cccc(C(F)(F)F)c1)c1cccc2c1CCCC2 [compound 39]
[2]
  logP at 24 h: 4.79
  C(oil): 9.541 mg/mL
  C(aqueous): 0.0001 mg/mL
[3]
  CLint scaled at 1 µM: 68 mL/min/kg
  microsomal CLint at 1 µM: 66.2 µL/min/mg
  Hepatic Extraction Ratio (ER): 0.76
  Remaining Percentage 0.5 min: 100.00%
  Remaining Percentage 5 min: 85.98%
  Remaining Percentage 15 min: 57.81%
  Remaining Percentage 30 min: 38.01%
  Predicted Hepatic CLH: 16.05 mL/min/kg
[3]; [6]
  half-life at 1 µM: 21 min
[3]; [7]
  half-life at 1 µM: 21 min
[1]
  half-life at 105 µM: 33.7 min

## CCOC(=O)[C@H](C)C[C@@H](Cc1ccc(C2CCCCC2)cc1)NC(=O)CCC(=O)O [compound 70]
[2]
  logP at 24 h: 1.39
  C(oil): 0.737 mg/mL
  C(aqueous): 0.030 mg/mL
